Experimental data: patent US6663881B2 (priority 1993, dated 2003)
Like-named read-outs stand apart in the source and are kept apart here.

What was measured:
[1] = 7 day intravenous toxicity study in rats (Table 11); format: in vivo; details: 10 μg/ml IV four times a day for 7 days (800 μg/kg daily)
Experimental: To determine the toxicity of cytochalasin B, rats (4 male and 4 female) were injected with 10 μg/ml cytochalasin B four times a day for 7 days (Table 11). Data regarding body weight changes, food consumption, food efficiency, hematology parameters, coagulation parameters, serum chemistry parameters, and gross necropsy findings were collected. […] There were no gross or microscopic changes detected in the heart to account for the elevation. Thus, daily administration of cytochalasin B to rats at a dose of 800 μg/kg (for a total injected dose of 5600 μg/kg) may have an effect on heart weight of female (but not male) rats. However, clotted blood was not routinely removed from the heart lumens prior to weighing the heart.

[2] = test system: Vascular smooth muscle cells
[3] = test system: Vascular smooth muscle cells (BO54); test: Scratch-migration assay; format: cell-based, baboon; set-up: key: −=no toxicity; +1=minimal; +2=mild; +3=moderate; +4=marked toxicity; details: Continuous Exposure
Experimental: Scratch assays to determine the extent of smooth muscle cell migration inhibition by cytochalasin B were performed in accordance with the following protocol:
Vascular smooth muscle cells (BO54) were derived from explants of baboon aortic smooth muscle, as described in Example 10. The cells were grown in flat bottom, six well tissue culture plates, which hold about 5 ml of medium. The vascular smooth muscle cells were plated at 200,000 cells/well and placed at 37° C. in a humidified 5% CO2 incubator for 18 hours. The wells were then scratched with a sterile portion of a single edge razor blade that was held by clamp or pliers and was brought aseptically into contact with the bottom of the well at a 90° angle. The cells from a small area along the scratch were removed by a sterile cotton tipped applicator while the blade was in contact with the bottom of the well. After incubation, the presence of cells in the “scratched” area is indicative of cell migration across the scratch line.
Briefly, a stock solution of cytochalasin B (Sigma Chemical Co.) in dimethyl sulfoxide (DMSO) at 1 mg/ml was prepared. Test dilutions of cytochalasin B or control medium were added. Each experiment included two sets of plates:
A set: Test agent exposure for 1, 3, 6, 8 and 10 days only; and
B set: Test agent exposure for 1, 3, 6, 8 and 10 days, followed by a seven day recovery time with control medium.
Both sets of plates were fixed (10% formalin in PBS) and stained (0.02% crystal violet) at the end of the timed exposures. Test concentrations for cytochalasin B were 1, 0.1 and 0.01 μg/ml, and a negative medium control was included. […]
In this Table, “M” indicates Migration Grade, wherein −=no migration; +1=minimal; +2=mild; +3=moderate; and +4=marked (maximum density; limit of cell contact inhibition) migration of vascular smooth muscle cells into the cleared area adjacent to the scratch. […] The migration results are expressed as “Grade in the Cleared Area of the Well/Grade in an Undisturbed Region of the Well.” The toxicity values represent a grade for all cells in each well.

C=C1[C@@H](C)[C@H]2[C@H](Cc3ccccc3)NC(=O)[C@]23OC(=O)/C=C/[C@H](O)CCC[C@@H](C)C/C=C/[C@H]3[C@@H]1O [cytochalasin B]
adverse effect [1]: elevation of the mean relative heart weight in treated female animals | Morphological cytotoxicity grade ([2]; 0.01 μg, 24 hrs + 24 hrs): 0 | Morphological cytotoxicity grade ([2]; 0.01 μg, 24 hrs + 48 hrs): 0 | Morphological cytotoxicity grade ([2]; 0.01 μg, 24 hrs + 72 hrs): 0 | Morphological cytotoxicity grade ([2]; 0.01 μg, 24 hrs + 96 hrs): 0 | Morphological cytotoxicity grade ([2]; 0.01 μg, 24 hrs + 120 hrs): 0 | Morphological cytotoxicity grade ([2]; 0.01 μg, Continuous 6 hrs): 0 | Morphological cytotoxicity grade ([2]; 0.01 μg, Continuous 24 hrs (first listing)): 0 | Morphological cytotoxicity grade ([2]; 0.01 μg, Continuous 24 hrs (second listing)): 0 | Morphological cytotoxicity grade ([2]; 0.01 μg, Continuous 48 hrs): 0 | Morphological cytotoxicity grade ([2]; 0.01 μg, Continuous 72 hrs): 0 | Morphological cytotoxicity grade ([2]; 0.01 μg, Continuous 96 hrs): 0 | Morphological cytotoxicity grade ([2]; 0.01 μg, Continuous 120 hrs): 0 | Morphological cytotoxicity grade ([2]; 0.01 μg, Continuous 168 hrs): 0 | Morphological cytotoxicity grade ([2]; 0.01 μg, Continuous 216 hrs): 0 | Morphological cytotoxicity grade ([2]; 0.01 μg, Continuous 264 hrs): 0 | Morphological cytotoxicity grade ([2]; 0.1 μg, 5 min + 2 hrs): 0 | Morphological cytotoxicity grade ([2]; 0.1 μg, 5 min + 24 hrs): 0 | Morphological cytotoxicity grade ([2]; 0.1 μg, 5 min + 48 hrs): 0 | Morphological cytotoxicity grade ([2]; 0.1 μg, 5 min + 72 hrs): 0 | Morphological cytotoxicity grade ([2]; 0.1 μg, 5 min + 96 hrs): 0 | Morphological cytotoxicity grade ([2]; 0.1 μg, 5 min + 120 hrs): 0 | Morphological cytotoxicity grade ([2]; 0.1 μg, 24 hrs + 24 hrs): 0.5 | Morphological cytotoxicity grade ([2]; 0.1 μg, 24 hrs + 48 hrs): 1 | Morphological cytotoxicity grade ([2]; 0.1 μg, 24 hrs + 72 hrs): 0.5 | Morphological cytotoxicity grade ([2]; 0.1 μg, 24 hrs + 96 hrs): 0 | Morphological cytotoxicity grade ([2]; 0.1 μg, 24 hrs + 120 hrs): 0 | Morphological cytotoxicity grade ([2]; 0.1 μg, Continuous 6 hrs): 0 | Morphological cytotoxicity grade ([2]; 0.1 μg, Continuous 24 hrs (first listing)): 1 | Morphological cytotoxicity grade ([2]; 0.1 μg, Continuous 24 hrs (second listing)): 0 | Morphological cytotoxicity grade ([2]; 0.1 μg, Continuous 48 hrs): 1 | Morphological cytotoxicity grade ([2]; 0.1 μg, Continuous 72 hrs): 1 | Morphological cytotoxicity grade ([2]; 0.1 μg, Continuous 120 hrs): 1 | Morphological cytotoxicity grade ([2]; 0.1 μg, Continuous 168 hrs): 1 | Morphological cytotoxicity grade ([2]; 0.1 μg, Continuous 216 hrs): 1 | Morphological cytotoxicity grade ([2]; 0.1 μg, Continuous 264 hrs): 1 | Morphological cytotoxicity grade ([2]; 1 μg, 5 min + 2 hrs): 0 | Morphological cytotoxicity grade ([2]; 1 μg, 5 min + 48 hrs): 1 | Morphological cytotoxicity grade ([2]; 1 μg, 5 min + 72 hrs): 1 | Morphological cytotoxicity grade ([2]; 1 μg, 5 min + 96 hrs): 1 | Morphological cytotoxicity grade ([2]; 1 μg, 5 min + 120 hrs): 1 | Morphological cytotoxicity grade ([2]; 1 μg, 24 hrs + 24 hrs): 3 | Morphological cytotoxicity grade ([2]; 1 μg, 24 hrs + 48 hrs): 4 | Morphological cytotoxicity grade ([2]; 1 μg, 24 hrs + 72 hrs): 4 | Morphological cytotoxicity grade ([2]; 1 μg, 24 hrs + 96 hrs): 4 | Morphological cytotoxicity grade ([2]; 1 μg, 24 hrs + 120 hrs): 4 | Morphological cytotoxicity grade ([2]; 1 μg, Continuous 24 hrs (first listing)): 3 | Morphological cytotoxicity grade ([2]; 1 μg, Continuous 24 hrs (second listing)): 3 | Morphological cytotoxicity grade ([2]; 1 μg, Continuous 48 hrs): 3 | Morphological cytotoxicity grade ([2]; 1 μg, Continuous 72 hrs): 3 | Morphological cytotoxicity grade ([2]; 1 μg, Continuous 96 hrs): 3 | Morphological cytotoxicity grade ([2]; 1 μg, Continuous 120 hrs): 3 | Morphological cytotoxicity grade ([2]; 1 μg, Continuous 168 hrs): 4 | Morphological cytotoxicity grade ([2]; 1 μg, Continuous 216 hrs): 4 | Morphological cytotoxicity grade ([2]; 1 μg, Continuous 264 hrs): 4 | cytotoxicity grade at in vitro effective dosage ([2]; 1 μg/ml, anti-migration/contraction effective dose): 1 | Morphological cytotoxicity grade ([2]; 10 μg, 5 min + 2 hrs): 0.5 | Morphological cytotoxicity grade ([2]; 10 μg, 5 min + 24 hrs): 4 | Morphological cytotoxicity grade ([2]; 10 μg, 5 min + 48 hrs): 4 | Morphological cytotoxicity grade ([2]; 10 μg, 5 min + 120 hrs): 5 | Toxicity Grade ([3]; Day 6, 1.0 μg/mL): +4 | Toxicity Grade ([3]; Day 8, 1.0 μg/mL): +4 | Toxicity Grade ([3]; Day 10, 1.0 μg/mL): +4
